The source of these data is US20260022143A1, “Cyclic Peptide Inhibitors of IL-23” (JANSSEN PHARMACEUTICA NV, priority 2022, published 2026).

In one data set the target is T1, IL-23R (Homo sapiens, UniProt Q5VWK5).
T1 construct: host or cells: HEK293
T1 sequence (Q5VWK5 24-629): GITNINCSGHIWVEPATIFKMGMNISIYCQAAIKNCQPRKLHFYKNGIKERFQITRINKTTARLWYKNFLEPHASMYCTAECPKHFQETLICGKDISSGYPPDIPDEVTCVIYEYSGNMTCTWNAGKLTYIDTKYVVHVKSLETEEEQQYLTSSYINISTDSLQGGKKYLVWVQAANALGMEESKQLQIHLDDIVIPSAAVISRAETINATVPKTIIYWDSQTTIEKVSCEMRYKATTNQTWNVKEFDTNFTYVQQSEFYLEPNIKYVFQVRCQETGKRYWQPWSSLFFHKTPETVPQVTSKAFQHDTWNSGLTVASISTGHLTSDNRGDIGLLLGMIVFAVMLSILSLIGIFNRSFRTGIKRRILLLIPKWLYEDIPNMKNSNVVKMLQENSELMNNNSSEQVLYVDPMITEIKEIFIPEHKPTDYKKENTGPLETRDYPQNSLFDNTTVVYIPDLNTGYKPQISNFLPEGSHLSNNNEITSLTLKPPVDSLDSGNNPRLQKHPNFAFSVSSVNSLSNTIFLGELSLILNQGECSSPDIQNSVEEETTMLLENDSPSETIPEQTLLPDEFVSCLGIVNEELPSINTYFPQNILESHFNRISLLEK
The experiment in a line: IL23R Reporter Assay. In kind it is cell-based. As to conditions: HEK293 cells containing IL-23R, IL-12RP1 and STAT-inducible firefly luciferase reporter; 10 ng/mL IL-23 (EC90); 5 h at 37° C.; read-out: IL23R Reporter Assay. (In general: In a reporter assay the amount or activity of a reporter protein is the signal.)

Data set [1] in a line: Exposed Polar Surface Area (EPSA). Type of data set: physicochemical. As to conditions: SFC on Chirex 3014 column; sample 1 mM DMSO stock; read-out: EPSA. A digest of the protocol:
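SFC retention on a Chirex 3014 (S)-valine/(R)-1-(α-naphthyl)ethylamine column, 35 °C, CO2 with MeOH (20 mM ammonium formate) gradient 5–60% at 20%/min, 14 MPa outlet. Retention times converted to EPSA (Å^2) via linear calibration with 8 standards; samples from 1 mM DMSO stock, run in duplicate.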

Positions of bridges follow the written chain, without caps; N, C: chain ends. Non-standard residues stand in square brackets, D forms with d. Residues, ends and D or L forms follow the SMILES beside them. *: point of attachment. Trp(7-(3-AcNH-Ph)) = CC(=O)Nc1cccc(-c2cccc3c(C[C@H](N)C(=O)O)c[nH]c23)c1; Me3N+(CH2)2O(CH2)2O(CH2)2CO = C[N+](C)(C)CCOCCOCCC(=O)*; CH2CH2OCH2CH2OCH2CH2NMe3+ = C[N+](C)(C)CCOCCOCC*; Trp(7-Me) = Cc1cccc2c(C[C@H](N)C(=O)O)c[nH]c12; dLys(Me3) = C[N+](C)(C)CCCC[C@@H](N)C(=O)O; 3Pal(5-Me) = Cc1cncc(C[C@H](N)C(=O)O)c1; 2Nal = N[C@@H](Cc1ccc2ccccc2c1)C(=O)O; AEF = NCCOc1ccc(C[C@H](N)C(=O)O)cc1; 3Pal = N[C@@H](Cc1cccnc1)C(=O)O; Ethyl(2-guanidino) = N=C(N)NCC*; Lys(Me) = CNCCCC[C@H](N)C(=O)O; Pen = CC(C)(S)[C@H](N)C(=O)O; Thp = NC1(C(=O)O)CCOCC1; X3 = C[N+](C)(C)CCCCC*; Sar = CNCC(=O)O Some results are limits rather than exact numbers.

On to `CC(=O)NCCCC[C@@H]1NC(=O)[C@H](Cc2c[nH]c3c(C)cccc23)NC(=O)[C@H]([C@@H](C)O)NC(=O)[C@H](CC(N)=O)NC(=O)[C@@H](NC(C)=O)C(C)(C)SSC(C)(C)[C@@H](C(=O)N[C@@H](Cc2ccc(OCCCCC[N+](C)(C)C)cc2)C(=O)N[C@@H](Cc2ccc3ccccc3c2)C(=O)NC2(C(=O)N[C@@H](CCCCNC(C)=O)C(=O)N[C@@H](CC(N)=O)C(=O)N[C@@H](Cc3cccnc3)C(=O)N(C)CC(N)=O)CCCCC2)NC1=O` [compound 538, MeCO-Pen(3)-N-T-7MeW-K(Ac)-Pen(3)-TMAPF-2Nal-Achx-K(Ac)-N-3Pya-Sar-CONH2], for which, on IL-23R, the IC50 worked out at 3.5 nM. Further, in data set [1], the EPSA was determined as 163 A^2.

Turning to `CC(=O)NCCCC[C@@H]1NC(=O)[C@H](Cc2c[nH]c3c(C)cccc23)NC(=O)[C@H]([C@@H](C)O)NC(=O)[C@H](CC(N)=O)NC(=O)[C@@H](NC(=O)[C@@H](CCCNC(=N)N)NC(=O)CCOCCOCC[N+](C)(C)C)C(C)(C)SSC(C)(C)[C@@H](C(=O)N[C@@H](Cc2ccc(OCCN)cc2)C(=O)N[C@@H](Cc2ccc3ccccc3c2)C(=O)NC2(C(=O)N[C@@H](CCCCNC(C)=O)C(=O)N[C@@H](CC(N)=O)C(=O)N[C@@H](Cc3cncc(C)c3)C(=O)N(C)CC(N)=O)CCOCC2)NC1=O` [compound 541, cPEG3aCO-r-Pen(3)-N-T-7MeW-K(Ac)-Pen(3)-AEF-2Nal-THP-K(Ac)-N-5MePyridinAla-Sar-CONH2] ({Me3N+(CH2)2O(CH2)2O(CH2)2CO}-[dR][Pen]NT[Trp(7-Me)]K(Ac)[Pen][AEF][2Nal][Thp]K(Ac)N[3Pal(5-Me)][Sar]-NH2; disulfide 2-7), on IL-23R, the IC50 worked out at 0.97 nM. Further, in data set [1], the EPSA turned out to be 187 A^2.

In the case of `CC(=O)NCCCC[C@@H]1NC(=O)[C@H](Cc2c[nH]c3c(C)cccc23)NC(=O)[C@H]([C@@H](C)O)NC(=O)[C@H](CC(N)=O)NC(=O)[C@@H](NC(=O)[C@@H](CCCNC(=N)N)NC(C)=O)C(C)(C)SSC(C)(C)[C@@H](C(=O)N[C@@H](Cc2ccc(OCCCCC[N+](C)(C)C)cc2)C(=O)N[C@@H](Cc2ccc3ccccc3c2)C(=O)NC2(C(=O)N[C@@H](CCC(=O)O)C(=O)N[C@@H](CC(N)=O)C(=O)N[C@@H](Cc3cncc(C)c3)C(=O)N(C)CC(N)=O)CCOCC2)NC1=O` [compound 543, MeCO-r-Pen(3)-N-T-7MeW-K(Ac)-Pen(3)-TMAPF-2Nal-THP-E-N-5MePyridinAla-Sar-CONH2] (Ac-[dR][Pen]NT[Trp(7-Me)]K(Ac)[Pen]Y(X3)[2Nal][Thp]EN[3Pal(5-Me)][Sar]-NH2; disulfide 2-7), the IC50 at IL-23R came to 2 nM. Moreover, the EPSA in data set [1] stood at 179 A^2.

Consider `CC(=O)N(C)CCCC[C@H](NC(=O)C1(NC(=O)[C@H](Cc2ccc3ccccc3c2)NC(=O)[C@H](Cc2ccc(OCCOCCOCC[N+](C)(C)C)cc2)NC(=O)[C@H]2NC(=O)[C@H](CCCCNC(=O)CCOCCOCC[N+](C)(C)C)NC(=O)[C@H](Cc3c[nH]c4c(C)cccc34)NC(=O)[C@H]([C@@H](C)O)NC(=O)[C@H](CC(=O)N(C)C)NC(=O)[C@@H](NC(=O)CCOCCOCC[N+](C)(C)C)C(C)(C)SSC2(C)C)CCOCC1)C(=O)N[C@@H](CC(N)=O)C(=O)N[C@@H](Cc1cccnc1)C(=O)N(C)CC(=O)N(C)C` [compound 544, cPEG3aCO-Pen(3)-N(N(Me)2)-T-7MeW-K(cPEG3aCO)-Pen(3)-APEG3F-2Nal-THP-K(NMeAc)-N-3Pya-Sar-CON(Me)2] ({Me3N+(CH2)2O(CH2)2O(CH2)2CO}-[Pen]D(NMe2)T[Trp(7-Me)]K(Me3N+(CH2)2O(CH2)2O(CH2)2CO)[Pen]Y(CH2CH2OCH2CH2OCH2CH2NMe3+)[2Nal][Thp][Lys(Me)](Ac)N[3Pal][Sar]-NMe2; disulfide 1-6), for which the IC50 at IL-23R came to 2 nM. In addition, the EPSA in data set [1] came to 157 A^2.

Consider `CC(=O)NCCCC[C@@H]1NC(=O)[C@H](Cc2c[nH]c3c(C)cccc23)NC(=O)[C@H]([C@@H](C)O)NC(=O)[C@H](CC(N)=O)NC(=O)[C@@H](NC(C)=O)C(C)(C)SSC(C)(C)[C@@H](C(=O)N[C@@H](Cc2ccc(OCCCCC[N+](C)(C)C)cc2)C(=O)N[C@@H](Cc2ccc3ccccc3c2)C(=O)NC2(C(=O)N[C@@H](CCCCNC(=O)CCCCCc3ccc(I)cc3)C(=O)N[C@@H](CC(N)=O)C(=O)N[C@@H](Cc3cccnc3)C(=O)N(C)CC(N)=O)CCOCC2)NC1=O` [compound 546, MeCO-Pen(3)-N-T-7MeW-K(Ac)-Pen(3)-TMAPF-2Nal-THP-K(IPB)-N-3Pya-Sar-CONH2], for which the IC50 on IL-23R was found to be 7.2 nM. Moreover, the EPSA in data set [1] came out at 168 A^2.

Take `CC(=O)NCCCC[C@@H]1NC(=O)[C@H](Cc2c[nH]c3c(C)cccc23)NC(=O)[C@H]([C@@H](C)O)NC(=O)[C@H](CC(N)=O)NC(=O)[C@@H](NC(=O)CCCc2ccc(I)cc2)C(C)(C)SSC(C)(C)[C@@H](C(=O)N[C@@H](Cc2ccc(OCCCCC[N+](C)(C)C)cc2)C(=O)N[C@@H](Cc2ccc3ccccc3c2)C(=O)NC2(C(=O)N[C@@H](CCCCNC(C)=O)C(=O)N[C@@H](CC(N)=O)C(=O)N[C@@H](Cc3cccnc3)C(=O)N(C)CC(N)=O)CCOCC2)NC1=O` [compound 547, IPBCO-Pen(3)-N-T-7MeW-K(Ac)-Pen(3)-TMAPF-2Nal-THP-K(Ac)-N-3Pya-Sar-CONH2]: the IC50 on IL-23R is 4.6 nM. For the same molecule, the EPSA in data set [1] was determined as 168 A^2.

For the molecule `CC(=O)N(C)CCCC[C@@H]1NC(=O)[C@H](C)NC(=O)[C@H]([C@@H](C)O)NC(=O)[C@H](CC(=O)N(C)C)NC(=O)[C@@H](NC(=O)CCOCCOCC[N+](C)(C)C)C(C)(C)SSC(C)(C)[C@@H](C(=O)N[C@@H](Cc2ccc(OCCOCCOCC[N+](C)(C)C)cc2)C(=O)N[C@@H](C)C(=O)NC2(C(=O)N[C@@H](CCCCN(C)C(C)=O)C(=O)N[C@@H](CC(N)=O)C(=O)N[C@@H](Cc3cccnc3)C(=O)N(C)CC(=O)N(C)C)CCOCC2)NC1=O` [compound 557, cPEG3aCO-Pen(3)-N(N(Me)2)-T-A-K(NMeAc)-Pen(3)-APEG3F-A-THP-K(NMeAc)-N-3Pya-Sar-CON(Me)2] ({Me3N+(CH2)2O(CH2)2O(CH2)2CO}-[Pen]D(NMe2)TA[Lys(Me)](Ac)[Pen]Y(CH2CH2OCH2CH2OCH2CH2NMe3+)A[Thp][Lys(Me)](Ac)N[3Pal][Sar]-NMe2; disulfide 1-6), the IC50 at IL-23R is over 16600 nM. The EPSA in data set [1] came out at 139 A^2.

On to `CC(=O)NCCCC[C@@H]1NC(=O)[C@H](Cc2c[nH]c3c(C)cccc23)NC(=O)[C@H]([C@@H](C)O)NC(=O)[C@H](CC(N)=O)NC(=O)[C@@H](NC(=O)[C@@H](CCCNC(=N)N)NC(C)=O)C(C)(C)SSC(C)(C)[C@@H](C(=O)N[C@@H](Cc2ccc(OCCCCC[N+](C)(C)C)cc2)C(=O)N[C@@H](Cc2ccc3ccccc3c2)C(=O)NC2(C(=O)N[C@@H](CCCCNC(C)=O)C(=O)N[C@@H](CC(N)=O)C(=O)N[C@@H](Cc3cccnc3)C(=O)N(C)CC(N)=O)CCOCC2)NC1=O` [compound 558, MeCO-r-Pen(3)-N-T-7MeW-K(Ac)-Pen(3)-TMAPF-2Nal-THP-K(Ac)-N-3Pya-Sar-CONH2] (Ac-[dR][Pen]NT[Trp(7-Me)]K(Ac)[Pen]Y(X3)[2Nal][Thp]K(Ac)N[3Pal][Sar]-NH2; disulfide 2-7), for which the IC50 on IL-23R came to 4.1 nM. In data set [1], the EPSA worked out at 174 A^2.

In the case of `CNC(=O)C[C@H](NC(=O)[C@H](CCCCN(C)C(C)=O)NC(=O)C1(NC(=O)[C@H](Cc2ccc3ccccc3c2)NC(=O)[C@H](Cc2ccc(OCCCCC[N+](C)(C)C)cc2)NC(=O)[C@H]2NC(=O)[C@H](CCCCN(C)C(C)=O)NC(=O)[C@H](Cc3c[nH]c4c(C)cccc34)NC(=O)[C@H]([C@@H](C)O)NC(=O)[C@H](CC(=O)N(C)C)NC(=O)[C@@H](NC(=O)CCOCCOCC[N+](C)(C)C)C(C)(C)SSC2(C)C)CCOCC1)C(=O)N[C@@H](Cc1cccnc1)C(=O)N(C)CC(=O)N(C)C` [compound 560, cPEG3aCO-Pen(3)-N(N(Me)2)-T-7MeW-K(NMeAc)-Pen(3)-TMAPF-2Nal-THP-k(NMeAc)-N(NMe)-3Pya-Sar-CON(Me)2] ({Me3N+(CH2)2O(CH2)2O(CH2)2CO}-[Pen]D(NMe2)T[Trp(7-Me)][Lys(Me)](Ac)[Pen]Y(X3)[2Nal][Thp][Lys(Me)](Ac)D(NHMe)[3Pal][Sar]-NMe2; disulfide 1-6), at IL-23R, the IC50 was determined as 3.4 nM. Moreover, the EPSA in data set [1] is 154 A^2.

Consider `CC(=O)NCCCC[C@@H]1NC(=O)[C@H](Cc2c[nH]c3c(-c4cccc(NC(C)=O)c4)cccc23)NC(=O)[C@H]([C@@H](C)O)NC(=O)[C@H](CC(N)=O)NC(=O)[C@@H](NC(=O)[C@@H](CCCC[N+](C)(C)C)NC(C)=O)C(C)(C)SSC(C)(C)[C@@H](C(=O)N[C@@H](Cc2ccc(OCCNC(=N)N)cc2)C(=O)N[C@@H](Cc2ccc3ccccc3c2)C(=O)NC2(C(=O)N[C@@H](CCC(=O)O)C(=O)N[C@@H](CC(N)=O)C(=O)N[C@@H](Cc3cccnc3)C(=O)N(C)CC(N)=O)CCOCC2)NC1=O` [compound 563, MeCO-k(Me)3-Pen(3)-N-T-7(3NAcPh)W-K(Ac)-Pen(3)-AEF(G)-2Nal-THP-E-N-3Pya-Sar-CONH2] (Ac-[dLys(Me3)][Pen]NT[Trp(7-(3-AcNH-Ph))]K(Ac)[Pen]Y(Ethyl(2-guanidino))[2Nal][Thp]EN[3Pal][Sar]-NH2; disulfide 2-7), for which the IC50 on IL-23R stood at 1.5 nM. The EPSA in data set [1] is 194 A^2.
